Source: a melting point compilation (Tetko et al.; mined from patent text by program, amines drawn as free bases though some values may be those of a salt)

melting point [°C] | SMILES
155 to 157 | Cc1ncc2c(C#N)c(-c3ccc(S(=O)(=O)N[C@@H](C)C4CC4)cn3)n(C3CCC3)c2n1
118 to 120 | CC1(C)OC(c2ccc(S(C)(=O)=O)cc2)=C(c2ccc(OC(F)(F)F)cc2)C1=O
87 to 88 | CCOC(=O)c1ccc(NCCCOc2ccc(Cl)cc2)cc1
117 to 120 | CC(=O)Oc1ccc(CI)cc1C(OC(C)=O)OC(C)=O
130 to 132 | CSc1nc(=O)cc(N)n1-c1ccc(C)cc1
80 to 81 | C=CCCCCNC(=O)c1cnc(OCC(O)CNC(C)(C)C)s1 (centres undefined)
72 to 74 | O=S(=O)(c1ccccc1)C(F)(F)C(O)c1ccco1 (centres undefined)
153 to 155 | CCCCCNc1c(C(=O)OCC)cnc2cn[nH]c12
78 to 80 | O=C1CC(c2ccccc2)(c2cccs2)Oc2ccccc21 (centres undefined)
167 to 170 | Oc1ccc(-c2cc3cc(O)ccc3o2)c(-c2ccccc2)c1
125 to 126 | CC1=CC(=C(CC(C)CC(C)(C)C)c2cc(C)cc(C)c2OCc2ccccc2)C(O)C(C)=C1 (centres undefined)
154 to 155 | CCOC(=O)C=C1CN(C)C(=O)c2ccccc2N1
170 to 173 | O=C(O)C1=Cc2cc(S(=O)(=O)NCc3ccco3)ccc2OC1C(F)(F)F (centres undefined)
110 to 113 | COc1ncc(Cl)cc1C(O)C(N)=O (centres undefined)
146 to 147 | O=C1N[C@H](Cc2ccc(C(F)(F)F)cc2)[C@H](c2ccccc2F)O1 (racemic)
212 to 213 | CN(CC1CCc2c(cccc2OCC(=O)O)C1)c1cnc(-c2ccccc2)c(-c2ccccc2)n1 (centres undefined)
198 to 199 | O=C1C(c2ccccc2)=C(c2ccccc2)C(=O)N1c1ccc(Cl)cc1
306 to 308 | CC(=O)c1cn(-c2cc(C)c3[nH]c(=O)ccc3c2)c(C)n1
72 | COc1cc2c(cc1F)C(CCCN1CCN(C)CC1)(c1ccccc1F)C(=O)N2S(=O)(=O)c1ccc(OC(C)C)cc1 (centres undefined)
> 260 | O=C(NCCO)c1ccc(-c2ccc3nnn(Cc4ccc5ncccc5c4)c3n2)cc1
111 to 113 | CCOc1ccc(Nc2nc(=O)cc(N)n2-c2ccccc2)cc1
46 | CCOC(=O)C(C)(C)Oc1ccc(C#N)cc1C
110 to 112 | CCOC(=O)c1c(-c2cccc([N+](=O)[O-])c2)cc(-c2ccccc2)nc1C
68 to 71 | CC(C)(C)NC(=O)[C@@H]1CSCN1
122 to 124 | CSc1nccc(C)c1NC(=O)CCCCCSc1nc2ccccc2o1

melting point [°C] | SMILES
168 to 170 | Cc1c(F)ccc(C(=O)O)c1F
144 to 146 | O=c1c(Cc2ccncc2)c(-c2ccc(F)cc2)[nH]c2ccccc12
185 | CCCCOC(=N)c1sc2ccccc2c1O
72 to 73 | O=C1NCCc2ccc(OCCCCN3CCN(c4cccc5c4OCC5)CC3)nc2N1
197 | CC(C)(O)C1CC(c2ccc(-c3ccc(N4C[C@H](Cn5ccnn5)OC4=O)cc3F)cn2)=NO1 (some centres undefined)
191 to 195 | CN(CCO)c1nccc(-c2ccncc2)n1
66 to 68 | CC1Cc2cc(F)c(F)cc2C1=O (centres undefined)
147 to 149 | O=C1NC(=O)C(Cc2ccc(C(=O)/C=C/c3ccccc3)cc2)S1 (centres undefined)
101 to 102 | CC(C)(C)C(Cc1ccc(Br)cc1)C(=O)n1ccnc1 (centres undefined)
212 to 215 | CC(C)Sc1nc(C(F)(F)F)c(I)c(=O)[nH]1
98 to 100 | CC(=O)c1c(-c2ccsc2)sc(-c2ccncc2)c1C
70 to 71 | CC(C)(C)OC(=O)[C@@H]1CCCN1C(=O)CCC(=O)c1ccc(Br)cc1
57 to 59 | CC(C)(CNC(=O)[C@H](O)[C@H](O)COC(=O)Cc1ccccc1Nc1c(Cl)cccc1Cl)SN=O
143 to 145 | COc1cc(C(C)C)ccc1C1(Br)C(=O)c2cccc(NC(C)=O)c2C1=O (centres undefined)
137 to 140 | CCN(CC)C(=O)c1ccc2ccccc2c1-c1ccccc1F
194 | CN1C(=O)Cn2c1nc(C(=O)O)c(OCc1ccccc1)c2=O
125 to 127 | CCOC(=O)c1cc(NC(=O)c2ccc(Cl)cc2Cl)ccc1Oc1cncc(Cl)c1
146 to 148 | CC(C(O)c1ccc(OCc2ccccc2)c(OCc2ccccc2)c1)N1CCC(n2c(=O)[nH]c3ccccc32)CC1 (centres undefined)
140 to 142 | COC(=O)CCC(=O)c1cc2cc(OC)c(OC)cc2o1
154 to 156 | CN1CCN(C(=O)c2ccc(N)cc2C(F)(F)F)CC1
72.5 to 73 | CCCCCCCCC(=O)Nc1cc([N+](=O)[O-])cc([N+](=O)[O-])c1
140 to 143 | CCOC(=O)c1cc(NC(=O)C(CS)Cc2ccc(Cl)cc2)c[nH]1 (centres undefined)
122 to 125 | CC(=O)Oc1nc(-c2ccc(C)cc2)sc1-c1ccccc1
197 to 198 | CCNC(=O)c1cccc2c1c(=O)n(Cc1cccnc1)n2C(=O)OCC
218 to 219 | O=C(Nc1nnc(SCC(=O)C23CC4CC(CC(C4)C2)C3)s1)C1CC1

melting point [°C] | SMILES
95 | COc1cccc(CO)c1CO
132 | CC1(C)C=C(c2ccccn2)c2ccc(C#N)cc2OC1
173 to 174 | Cc1cccc(-c2sc(NC(=O)Nc3ccccc3)nc2-c2cc(C)nc(C)c2)c1
91 to 92 | CN(c1ccc(OCCCCBr)cc1)S(=O)(=O)c1ccc(C(F)(F)F)cc1
38 | N#Cc1cc(N)ccc1N(CCO)CCO
104 to 106 | OC(Cc1ccc(Cl)cc1)Cn1cncn1 (centres undefined)
167 to 170 | N#Cc1ccc(C2=NOC3(CCN(C(=O)CCC(=O)O)CC3)C2)cc1
54 to 55 | CCCCCCCCCCCCCCCCc1ccccc1O
109 to 110 | CCCOC(=O)c1cc(=O)c2cc(OCc3cccc(OCc4ccc5ccccc5n4)c3)ccc2o1
137 to 138 | CC(C)(C)OC(=O)NCCCCNc1c([N+](=O)[O-])cnc2cccnc12
58 | COc1ccc(S(=O)(=O)C(C)(Cc2ccccc2)C(=O)NO)cc1 (centres undefined)
162 to 165 | O=C(O)CCc1c([N+](=O)[O-])cc(O)c(O)c1[N+](=O)[O-]
65 to 67 | CCCCCCCCCCOC(=O)CS(=O)(=O)Nc1c(C(C)C)cccc1C(C)C
210 to 211 | O=C(O)c1ccccc1C=Cc1ccc(-c2cc3ccc4ccccc4c3o2)cc1
82 to 82.5 | COc1cc(C=O)c2c(c1OC)OCC=C2
255 to 257 | CCc1cc2c(=O)n3cc(C(=O)O)ccc3nc2s1
137 to 139 | Cn1nnc(-c2ccc(C=O)cc2)n1
118 to 120 | COc1cc2cc(CO)c(CO)c(-c3ccncc3)c2cc1OC
132 to 134 | COC(=O)c1ccc(C(=O)OC)c(S(=O)(=O)NC(C)(C)C)c1
274 to 277 | O=S(=O)(Nc1ccccc1)c1ccc(-c2cnn3c(O)ncnc23)cc1
69 | CCOC(=O)C1C(C#N)C1(C)C (centres undefined)
> 300 | Cn1nc(N)c2c(=O)n(-c3ccccc3)c3ncccc3c21
56 to 58 | COc1ccc(CN(CCCC#N)Cc2ccc(OC)cc2)cc1
162 to 164 | COC(=O)c1ccccc1S(=O)(=O)NC(=O)Nc1nc(C)cc(OC(F)F)n1
